Laboratory results reported in ChEMBL document CHEMBL1926642, “Relevance of the C-5 position to schweinfurthin induced cytotoxicity” (2011).

Columns and labels:
Assay type in all cases: functional
UACC-257 = test: Growth inhibition of human UACC257 cells after 48 hrs by sulforhodamine B assay; conditions: UACC-257, 48 h
HT-29 = test: Growth inhibition of human HT-29 cells after 48 hrs by sulforhodamine B assay; conditions: HT-29, 48 h
NCI-H23 = test: Growth inhibition of human NCI-H23 cells after 48 hrs by sulforhodamine B assay; conditions: NCI-H23, 48 h
MDA-MB-468 = test: Growth inhibition of human MDA-MB-468 cells after 48 hrs by sulforhodamine B assay; conditions: MDA-MB-468, 48 h
ACHN = test: Growth inhibition of human ACHN cells after 48 hrs by sulforhodamine B assay
UO-31 = test: Growth inhibition of human UO31 cells after 48 hrs by sulforhodamine B assay; conditions: UO-31, 48 h
SW-620 = test: Growth inhibition of human SW620 cells after 48 hrs by sulforhodamine B assay; conditions: SW-620, 48 h
A549 = test: Growth inhibition of human A549 cells after 48 hrs by sulforhodamine B assay; conditions: A549, 48 h
T47D = test: Growth inhibition of human T47D cells after 48 hrs by sulforhodamine B assay
SF-295 = test: Growth inhibition of human SF295 cells after 48 hrs by sulforhodamine B assay; conditions: SF-295, 48 h
SK-MEL-2 = test: Growth inhibition of human SK-MEL-2 cells after 48 hrs by sulforhodamine B assay; conditions: SK-MEL-2, 48 h
SK-OV-3 = test: Growth inhibition of human SKOV3 cells after 48 hrs by sulforhodamine B assay; conditions: SK-OV-3, 48 h
OVCAR-8 = test: Growth inhibition of human OVCAR8 cells after 48 hrs by sulforhodamine B assay; conditions: OVCAR-8, 48 h
A498 = test: Growth inhibition of human A498 cells after 48 hrs by sulforhodamine B assay; conditions: A498, 48 h
OVCAR-4 = test: Growth inhibition of human OVCAR4 cells after 48 hrs by sulforhodamine B assay; conditions: OVCAR-4, 48 h
Malme-3M = test: Growth inhibition of human MALME-3M cells after 48 hrs by sulforhodamine B assay
HCT-15 = test: Growth inhibition of human HCT15 cells after 48 hrs by sulforhodamine B assay; conditions: HCT-15, 48 h
K562 = test: Growth inhibition of human K562 cells after 48 hrs by sulforhodamine B assay; conditions: K562, 48 h
SN12C = test: Growth inhibition of human SN12C cells after 48 hrs by sulforhodamine B assay
KM12 = test: Growth inhibition of human KM12 cells after 48 hrs by sulforhodamine B assay; conditions: KM12, 48 h
NCI-H460 = test: Growth inhibition of human NCI-H460 cells after 48 hrs by sulforhodamine B assay; conditions: NCI-H460, 48 h
NCI-H322M = test: Growth inhibition of human NCI-H322M cells after 48 hrs by sulforhodamine B assay
M14 = test: Growth inhibition of human M14 cells after 48 hrs by sulforhodamine B assay; conditions: M14, 48 h
RPMI-8226 = test: Growth inhibition of human RPMI8226 cells after 48 hrs by sulforhodamine B assay; conditions: RPMI-8226, 48 h
SF-539 = test: Growth inhibition of human SF539 cells after 48 hrs by sulforhodamine B assay; conditions: SF-539, 48 h
UACC-62 = test: Growth inhibition of human UACC62 cells after 48 hrs by sulforhodamine B assay; conditions: UACC-62, 48 h
SNB-75 = test: Growth inhibition of human SNB75 cells after 48 hrs by sulforhodamine B assay; conditions: SNB-75, 48 h
MDA-MB-435 = test: Growth inhibition of human MDA-MB-435 cells after 48 hrs by sulforhodamine B assay; conditions: MDA-MB-435, 48 h
OVCAR-5 = test: Growth inhibition of human OVCAR5 cells after 48 hrs by sulforhodamine B assay; conditions: OVCAR-5, 48 h
HCT-116 = test: Growth inhibition of human HCT116 cells after 48 hrs by sulforhodamine B assay; conditions: HCT-116, 48 h
PC-3 = test: Growth inhibition of human PC3 cells after 48 hrs by sulforhodamine B assay; conditions: PC-3, 48 h
CCRF-CEM = test: Growth inhibition of human CCRF-CEM cells after 48 hrs by sulforhodamine B assay

Compound: COCOc1cc(/C=C/c2cc(C=O)c3c(c2)C[C@@H]2C(C)(C)[C@H](O)CC[C@@]2(C)O3)cc(OC)c1C/C=C(\C)CCC=C(C)C
- GI50 (UACC-257): 3.98 µM
- LC50 (UACC-257): > 100 µM
- TGI (UACC-257; read-out: pTGI (converted)): 49 µM
- GI50 (HT-29): 4.37 µM
- LC50 (concentration killing 50% of cells) (HT-29): > 100 µM
- TGI (HT-29; read-out: pTGI (converted)): > 100 µM
- GI50 (NCI-H23): 11 µM
- LC50 (NCI-H23): > 100 µM
- TGI (NCI-H23; read-out: pTGI (converted)): > 100 µM
- GI50 (MDA-MB-468): 4.9 µM
- LC50 (MDA-MB-468): > 100 µM
- TGI (MDA-MB-468; read-out: pTGI (converted)): 46.8 µM
- GI50 (ACHN): 7.94 µM
- LC50 (ACHN): > 100 µM
- TGI (ACHN; read-out: pTGI (converted)): > 100 µM
- GI50 (UO-31): 4.07 µM
- LC50 (UO-31): > 100 µM
- TGI (UO-31; read-out: pTGI (converted)): > 100 µM
- GI50 (SW-620): 10.2 µM
- LC50 (SW-620): > 100 µM
- TGI (SW-620; read-out: pTGI (converted)): 44.7 µM
- LC50 (A549): > 100 µM
- GI50 (A549; read-out: GI50): 7.8 µM
- GI50 (A549; read-out: pGI50 (converted)): 7.76 µM
- TGI (A549; read-out: pTGI (converted)): > 100 µM
- GI50 (T47D): 13.5 µM
- LC50 (T47D): > 100 µM
- TGI (T47D; read-out: pTGI (converted)): > 100 µM
- LC50 (SF-295): > 100 µM
- GI50 (SF-295; read-out: GI50): 1.2 µM
- GI50 (SF-295; read-out: pGI50 (converted)): 1.2 µM
- TGI (SF-295; read-out: pTGI (converted)): 4.37 µM
- GI50 (SK-MEL-2): 12.9 µM
- LC50 (SK-MEL-2): > 100 µM
- TGI (SK-MEL-2; read-out: pTGI (converted)): > 100 µM
- GI50 (SK-OV-3): 41.7 µM
- LC50 (SK-OV-3): > 100 µM
- TGI (SK-OV-3; read-out: pTGI (converted)): > 100 µM
- GI50 (OVCAR-8): 17 µM
- LC50 (OVCAR-8): > 100 µM
- TGI (OVCAR-8; read-out: pTGI (converted)): 61.7 µM
- GI50 (A498): 7.59 µM
- LC50 (A498): > 100 µM
- TGI (A498; read-out: pTGI (converted)): > 100 µM
- GI50 (OVCAR-4): 6.92 µM
- LC50 (OVCAR-4): > 100 µM
- TGI (OVCAR-4; read-out: pTGI (converted)): > 100 µM
- GI50 (Malme-3M): 7.94 µM
- LC50 (Malme-3M): > 100 µM
- TGI (Malme-3M; read-out: pTGI (converted)): 95.5 µM
- GI50 (HCT-15): 3.31 µM
- LC50 (HCT-15): > 100 µM
- TGI (HCT-15; read-out: pTGI (converted)): 51.3 µM
- GI50 (K562): 4.37 µM
- LC50 (K562): > 100 µM
- TGI (K562; read-out: pTGI (converted)): 47.9 µM
- GI50 (SN12C): 14.8 µM
- LC50 (SN12C): > 100 µM
- TGI (SN12C; read-out: pTGI (converted)): > 100 µM
- GI50 (KM12): 7.94 µM
- LC50 (KM12): > 100 µM
- TGI (KM12; read-out: pTGI (converted)): 75.9 µM
- GI50 (NCI-H460): 5.89 µM
- LC50 (concentration killing 50% of cells) (NCI-H460): > 100 µM
- TGI (NCI-H460; read-out: pTGI (converted)): > 100 µM
- GI50 (NCI-H322M): 89.1 µM
- LC50 (NCI-H322M): > 100 µM
- TGI (NCI-H322M; read-out: pTGI (converted)): > 100 µM
- GI50 (M14): 11.2 µM
- LC50 (M14): > 100 µM
- TGI (M14; read-out: pTGI (converted)): 64.6 µM
- GI50 (RPMI-8226): 1.17 µM
- LC50 (RPMI-8226): > 100 µM
- TGI (RPMI-8226; read-out: pTGI (converted)): > 100 µM
- GI50 (SF-539): 0.891 µM
- LC50 (SF-539): > 100 µM
- TGI (SF-539; read-out: pTGI (converted)): 12.9 µM
- GI50 (UACC-62): 4.07 µM
- LC50 (50% lethal concentration) (UACC-62): > 100 µM
- TGI (UACC-62; read-out: pTGI (converted)): > 100 µM
- GI50 (SNB-75): 1.62 µM
- LC50 (SNB-75): > 100 µM
- TGI (SNB-75; read-out: pTGI (converted)): > 100 µM
- GI50 (MDA-MB-435): 6.76 µM
- LC50 (MDA-MB-435): > 100 µM
- TGI (MDA-MB-435; read-out: pTGI (converted)): 69.2 µM
- GI50 (OVCAR-5): 11.7 µM
- LC50 (OVCAR-5): > 100 µM
- TGI (OVCAR-5; read-out: pTGI (converted)): > 100 µM
- GI50 (HCT-116): 6.61 µM
- LC50 (HCT-116): > 100 µM
- TGI (HCT-116; read-out: pTGI (converted)): 35.5 µM
- GI50 (PC-3): 8.13 µM
- CC50 (PC-3; read-out: pLC50 (the source's name) (converted)): > 100 µM
- TGI (PC-3; read-out: pTGI (converted)): > 100 µM
- GI50 (CCRF-CEM): 4.37 µM
- LC50 (CCRF-CEM): > 100 µM
- TGI (CCRF-CEM; read-out: pTGI (converted)): > 100 µM
